Assay results published in PubChem BioAssay AID226 (DTP/NCI, 2004).
“And” between values parts separate entries of the source, which are not always exact repeats. Identical values can stand only once. Inconclusive results and toxic doses are left out. Rule for the calls: active = survival T/C of 150% or more; inactive = T/C below 125% in these data.

System: B6C3F1 mice, intracerebral ependymoblastoma, median survival T/C
Assay: NCI In Vivo Anticancer Drug Screen. Data for tumor model Ependymoblastoma (intracerebral) in B6C3F1 mice
Settings: endpoint: median survival time, higher = longer survival
Protocol: The antitumor activity of compounds was measured in mice bearing transplantable tumors. Survival or tumor size were measured and the results are expressed as the measurement made in the treated group (T) divided by the measurement made in the vehicle treated control group (C). The tumor model used in this assay is Ependymoblastoma (intracerebral) in B6C3F1 mice

[1] = dose: 4.0 mg/kg/injection, schedule: Q01DX005 (ip), vehicle: saline
[2] = dose: 16.0 mg/kg/injection, schedule: Q01DX005 (ip), vehicle: saline
[3] = dose: 64.0 mg/kg/injection, schedule: Q01DX005 (ip), vehicle: saline

Measured: T/C

CCOC(=O)CNC(=O)CCCCSc1ncnc2nc[nH]c12
inactive: [1] 106 % of control | dose: 16.0 mg/kg/injection, schedule: Q01DX001 (oral), vehicle: Klucel (hydroxypropylcellulose) (HPC) 95 % of control | dose: 16.0 mg/kg/injection, schedule: Q01DX005 (ip), vehicle: Klucel (hydroxypropylcellulose) (HPC) 100 % of control and 105 % of control | [2] 95 % of control and 101 % of control | dose: 32.0 mg/kg/injection, schedule: Q01DX005 (ip), vehicle: Klucel (hydroxypropylcellulose) (HPC) 96 % of control | dose: 64.0 mg/kg/injection, schedule: Q01DX001 (oral), vehicle: Klucel (hydroxypropylcellulose) (HPC) 92 % of control | dose: 64.0 mg/kg/injection, schedule: Q01DX005 (ip), vehicle: Klucel (hydroxypropylcellulose) (HPC) 95 % of control and 104 % of control and 109 % of control | [3] 96 % of control and 109 % of control | dose: 128.0 mg/kg/injection, schedule: Q01DX005 (ip), vehicle: Klucel (hydroxypropylcellulose) (HPC) 98 % of control | dose: 256.0 mg/kg/injection, schedule: Q01DX001 (oral), vehicle: Klucel (hydroxypropylcellulose) (HPC) 105 % of control | dose: 256.0 mg/kg/injection, schedule: Q01DX005 (ip), vehicle: Klucel (hydroxypropylcellulose) (HPC) 102 % of control and 108 % of control | dose: 256.0 mg/kg/injection, schedule: Q01DX005 (ip), vehicle: saline 105 % of control and 112 % of control | dose: 512.0 mg/kg/injection, schedule: Q01DX005 (ip), vehicle: Klucel (hydroxypropylcellulose) (HPC) 96 % of control | dose: 1024.0 mg/kg/injection, schedule: Q01DX005 (ip), vehicle: Klucel (hydroxypropylcellulose) (HPC) 100 % of control and 119 % of control and 121 % of control | dose: 1024.0 mg/kg/injection, schedule: Q01DX005 (ip), vehicle: saline 111 % of control and 124 % of control

COC1C(O)C(C)OC(OC2C(Oc3cccc4c(O)c5c(=O)oc6ccc(C)c7c(=O)oc(c34)c5c67)OC(C)C(O)C2O)C1O (stereo not drawn)
inactive: dose: 1.0 mg/kg/injection, schedule: Q01DX005 (ip), vehicle: saline 105 % of control | dose: 2.0 mg/kg/injection, schedule: Q01DX005 (ip), vehicle: saline with Tween-80 94 % of control and 105 % of control | dose: 2.0 mg/kg/injection, schedule: Q01DX005 (ip), vehicle: saline 98 % of control | dose: 4.0 mg/kg/injection, schedule: Q01DX005 (ip), vehicle: saline with Tween-80 99 % of control and 102 % of control | [1] 96 % of control | dose: 8.0 mg/kg/injection, schedule: Q01DX005 (ip), vehicle: saline with Tween-80 102 % of control and 104 % of control | dose: 8.0 mg/kg/injection, schedule: Q01DX005 (ip), vehicle: saline 101 % of control | dose: 16.0 mg/kg/injection, schedule: Q01DX005 (ip), vehicle: saline with Tween-80 100 % of control and 105 % of control | [2] 93 % of control | dose: 32.0 mg/kg/injection, schedule: Q01DX005 (ip), vehicle: saline with Tween-80 106 % of control and 89 % of control | dose: 32.0 mg/kg/injection, schedule: Q01DX005 (ip), vehicle: saline 98 % of control | dose: 64.0 mg/kg/injection, schedule: Q01DX005 (ip), vehicle: saline with Tween-80 102 % of control and 108 % of control | [3] 103 % of control | dose: 128.0 mg/kg/injection, schedule: Q01DX005 (ip), vehicle: saline with Tween-80 106 % of control and 111 % of control | dose: 128.0 mg/kg/injection, schedule: Q01DX005 (ip), vehicle: saline 98 % of control

ClC(Cl)=C(Cl)Cl
inactive: dose: 25.0 mg/kg/injection, schedule: Q01DX005 (ip), vehicle: other 110 % of control and 122 % of control | dose: 50.0 mg/kg/injection, schedule: Q01DX005 (ip), vehicle: other 100 % of control and 113 % of control | dose: 100.0 mg/kg/injection, schedule: Q01DX005 (ip), vehicle: other 101 % of control and 105 % of control | dose: 200.0 mg/kg/injection, schedule: Q01DX005 (ip), vehicle: other 93 % of control and 97 % of control

O=C(NC1CCCCC1)OCc1c(COC(=O)NC2CCCCC2)c(-c2ccc(Cl)c(Cl)c2)n2c1CCC2
inactive: dose: 50.0 mg/kg/injection, schedule: Q01DX005 (ip), vehicle: saline with Tween-80 99 % of control and 102 % of control | dose: 100.0 mg/kg/injection, schedule: Q01DX005 (ip), vehicle: saline with Tween-80 92 % of control and 108 % of control | dose: 200.0 mg/kg/injection, schedule: Q01DX005 (ip), vehicle: saline with Tween-80 104 % of control and 115 % of control | dose: 400.0 mg/kg/injection, schedule: Q01DX005 (ip), vehicle: saline with Tween-80 115 % of control and 118 % of control | dose: 800.0 mg/kg/injection, schedule: Q01DX005 (ip), vehicle: saline with Tween-80 106 % of control and 110 % of control

NC(CO)(CO)CO
inactive: dose: 200.0 mg/kg/injection, schedule: Q01DX005 (ip), vehicle: saline 98 % of control | dose: 400.0 mg/kg/injection, schedule: Q01DX005 (ip), vehicle: saline 110 % of control | dose: 800.0 mg/kg/injection, schedule: Q01DX005 (ip), vehicle: saline 105 % of control | dose: 1600.0 mg/kg/injection, schedule: Q01DX005 (ip), vehicle: saline 110 % of control
